Experimental findings from patent publication US20130245064A1, “NOVEL NEUROTRYPSIN INHIBITORS” (priority 2010, published 2013) are described below.

Each structure is given as a SMILES string.

One series concerns the target T1, Thrombin (Homo sapiens, UniProt P00734).
T1 construct: purchased American diagnostic
Kind of series: Determination of IC50 for various proteases: thrombin. Type of series: biochemical. The note with it: thrombin 6 nM, substrate S-2266 0.5 mM; Mean ± SD. Here is the method:
(§1) A 6 mM solution of the test compound in DMSO was prepared. In a V-bottom micro plate the 6 mM compound solution was diluted 6 times in DMSO to obtain a concentration row with the following concentrations: 6 mM, 1.8 mM, 540 μM, 162 μM, 48.8 μM, 14.4 μM, and 4 μM. From this DMSO master plate 1:20 dilutions in 10 mM MOPS pH 8.3 were prepared to obtain solutions of 300, 90, 27, 8.1, 2.44, 0.72 and 0.22 μM in MOPS buffer and 5% DMSO.
(§2) 100 μl of this solution were pipetted into a flat bottom 96 well microplate and placed into a Tecan infinite 200 plate reader. Before measurement, 50 μl of protease solution and, subsequently 50 μl substrate solution were added by the machine. The liberation of free para nitroanilide was detected at 405 nm. The protease solution was freshly prepared by diluting to the desired concentration from a stock solution in 60 mM MOPS; 600 mM NaCl; 20 mM CaCl2; 10% DMSO; 0.4% PEG 6000 pH 8.3. The substrate solution was prepared by dissolving the solid substrate in an adequate amount of water to get the desired concentrations. The used protease and substrate solutions are given below:
(§3) All enzymes except trypsin were from human origin (American diagnostic). Trypsin was hog trypsin (Sigma Aldrich). Substrates were purchased from Chromogenix. […]

The target in a further series is T2, Plasmin (Homo sapiens, UniProt P00747).
T2 construct: purchased American diagnostic
T2 sequence (P00747 581-810 limits assumed): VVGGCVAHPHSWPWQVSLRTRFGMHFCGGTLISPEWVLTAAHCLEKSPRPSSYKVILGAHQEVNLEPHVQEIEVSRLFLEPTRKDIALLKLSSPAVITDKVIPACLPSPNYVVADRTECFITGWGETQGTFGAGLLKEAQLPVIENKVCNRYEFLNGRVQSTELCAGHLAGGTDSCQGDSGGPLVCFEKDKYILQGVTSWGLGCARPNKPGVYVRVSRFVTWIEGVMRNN
T2 sequence (P00747 97-580 partner limits assumed): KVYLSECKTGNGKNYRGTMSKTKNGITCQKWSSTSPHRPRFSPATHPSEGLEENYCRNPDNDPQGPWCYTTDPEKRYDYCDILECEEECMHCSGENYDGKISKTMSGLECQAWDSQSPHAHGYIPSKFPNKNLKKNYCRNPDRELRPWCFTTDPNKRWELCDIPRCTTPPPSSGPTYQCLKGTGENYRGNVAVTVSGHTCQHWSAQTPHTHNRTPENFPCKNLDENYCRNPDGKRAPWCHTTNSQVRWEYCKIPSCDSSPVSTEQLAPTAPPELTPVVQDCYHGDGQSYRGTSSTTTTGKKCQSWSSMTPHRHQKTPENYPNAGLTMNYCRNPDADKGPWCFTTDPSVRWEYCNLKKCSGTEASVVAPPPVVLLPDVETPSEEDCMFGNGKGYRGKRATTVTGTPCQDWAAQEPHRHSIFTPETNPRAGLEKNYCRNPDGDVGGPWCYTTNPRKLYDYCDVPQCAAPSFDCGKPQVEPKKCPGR
Description: Determination of IC50 for various proteases: plasmin. It counts as biochemical. To be noted: plasmin 8 nM, substrate S-2288 0.5 mM; Mean ± SD. How it is done:
as §1, §2, §3

The target of another series is T3, Kallikrein (Homo sapiens, UniProt P03952).
T3 construct: purchased American diagnostic
T3 sequence (P03952 391-638 limits assumed): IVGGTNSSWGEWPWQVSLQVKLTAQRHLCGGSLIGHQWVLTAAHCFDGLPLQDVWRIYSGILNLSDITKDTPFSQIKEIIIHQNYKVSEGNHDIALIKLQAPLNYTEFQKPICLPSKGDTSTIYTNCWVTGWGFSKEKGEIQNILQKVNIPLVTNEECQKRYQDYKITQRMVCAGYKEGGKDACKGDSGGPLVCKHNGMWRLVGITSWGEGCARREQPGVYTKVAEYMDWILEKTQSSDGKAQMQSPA
T3 sequence (P03952 20-390 limits assumed): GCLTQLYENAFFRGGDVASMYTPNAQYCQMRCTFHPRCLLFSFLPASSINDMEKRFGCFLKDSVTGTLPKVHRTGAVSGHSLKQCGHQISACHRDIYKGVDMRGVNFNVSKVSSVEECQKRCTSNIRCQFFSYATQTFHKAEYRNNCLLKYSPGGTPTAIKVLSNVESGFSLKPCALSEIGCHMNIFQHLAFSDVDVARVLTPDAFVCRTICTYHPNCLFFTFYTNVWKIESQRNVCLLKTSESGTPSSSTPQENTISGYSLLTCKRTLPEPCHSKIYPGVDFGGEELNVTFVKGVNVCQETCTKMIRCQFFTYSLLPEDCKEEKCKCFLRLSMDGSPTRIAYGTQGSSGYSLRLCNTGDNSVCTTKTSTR
Kind of series: Determination of IC50 for various proteases: kallikrein. To be noted: kallikrein 2 nM, substrate S-2288 0.5 mM; Mean ± SD. It counts as biochemical. Here is the method:
as §1, §2, §3

Another series concerns the target T4, tPA (2 chain) (Homo sapiens, UniProt P00750).
T4 construct: tPA (2 chain); purchased American diagnostic
Description: Determination of IC50 for various proteases: tPA. To be noted: tPA (2 chain) 40 nM, substrate S-2288 0.5 mM; Mean ± SD. It counts as biochemical. How it is done:
as §1, §2, §3

The next series concerns the target T5, uPA (Homo sapiens, UniProt P00749).
T5 construct: purchased American diagnostic
Kind of series: Determination of IC50 for various proteases: uPA. Type of series: biochemical. To be noted: uPA 40 nM, substrate S-2288 0.5 mM; Mean ± SD. Here is the method:
as §1, §2, §3

Another series concerns the target T6, Factor Xa (Homo sapiens, UniProt P00742).
T6 construct: purchased American diagnostic
Kind of series: Determination of IC50 for various proteases: Factor Xa. The note with it: Factor Xa 5 nM, substrate S-2288 0.5 mM; Mean ± SD. It counts as biochemical. How it is done:
as §1, §2, §3

A short description of series [1]: Effect of compound on body weight in mice. To be noted: 25 mg/kg, three subcutaneous injections. It counts as in vivo, C57/BL6 mice. Here is the method: (§4) Adult (P50) C57/BL6 mice from Charles River were used for the experiments. All animal experiments are performed in accordance with international guidelines for proper conduct of animal experiment under jurisdiction of the Swiss law (Permit number ZH-18/2008). For every mouse in the experiment the well-being during the interventions is documented in a score sheet.
The mice are housed under optimal hygienic conditions (OHB) with controlled air-conditioning and lighting (temperature: 20-24° C., humidity: 55-65%, day/night cycle: 12 h/12 h, lights on 7 a.m.). Individually ventilated cages of type II, L (530 cm^2 floor space) with standard litter are used. A maximum of 6 mice is kept in each cage. Mice are fed with standard rodent chow (Extrudat, KLIBA NAFAG) ad libitum and have free access to drinking water. Animal colony is managed and maintained at BioSupport, Schlieren.
Three adult mice were treated with 2.5 ml/kg of a 10 mg/ml solution of the compound of Example 1 in 100% DMSO. This corresponds to a dose of 25 mg/kg active ingredient. As vehicle control, 3 mice were treated with 2.5 ml/kg of 100% DMSO. Each mouse received three subcutaneous injections. Between dose 1 and dose 2 there were 8 h, between dose 2 and dose 3 16 h. 5 h after the last injection the mice were euthanatized with CO2. […]

The subject of series [2] is C-terminal agrin fragment (CAF). Description: Analysis of serum CAF levels by western blotting in treated mice. Type of series: in vivo, C57/BL6 mice. The note with it: mouse serum pools, 25 mg/kg x 3 s.c., 5 h after last injection, western blot normalized to vehicle. How it is done: as §4
Three adult mice were treated with 2.5 ml/kg of a 10 mg/ml solution of the compound of Example 1 in 100% DMSO. This corresponds to a dose of 25 mg/kg active ingredient. As vehicle control, 3 mice were treated with 2.5 ml/kg of 100% DMSO. Each mouse received three subcutaneous injections. Between dose 1 and dose 2 there were 8 h, between dose 2 and dose 3 16 h. 5 h after the last injection the mice were euthanatized with CO2.
Before the first injection the mice were weighted and ˜100 μl of blood was collected from the lateral tail vein. Serum was prepared with centrifugation of blood samples in Microvette 500 Z-Gel tubes (10,000 g, 20° C., 5 min). […]
After staining for CAF the membrane was washed thoroughly and reused for a staining for endogenous mouse antibodies that served as loading control. […] After imaging with a Stella imaging system (Raytest) the intensity of the CAF bands was measured with AIDA picture analysis software (Raytest) and normalized to the loading levels determined from mouse antibody light chains. […]
A general note: A western blot detects proteins with antibodies after separation by electrophoresis.

T4 sequence (P00750 311-562 limits assumed): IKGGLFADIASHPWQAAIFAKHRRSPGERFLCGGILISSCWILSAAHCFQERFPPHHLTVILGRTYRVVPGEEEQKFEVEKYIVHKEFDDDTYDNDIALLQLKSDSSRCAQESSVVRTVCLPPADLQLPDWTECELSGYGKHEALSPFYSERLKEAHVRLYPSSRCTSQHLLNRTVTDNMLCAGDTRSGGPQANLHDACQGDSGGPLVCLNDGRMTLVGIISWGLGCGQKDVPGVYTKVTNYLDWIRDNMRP
T4 sequence (P00750 36-310 partner limits assumed): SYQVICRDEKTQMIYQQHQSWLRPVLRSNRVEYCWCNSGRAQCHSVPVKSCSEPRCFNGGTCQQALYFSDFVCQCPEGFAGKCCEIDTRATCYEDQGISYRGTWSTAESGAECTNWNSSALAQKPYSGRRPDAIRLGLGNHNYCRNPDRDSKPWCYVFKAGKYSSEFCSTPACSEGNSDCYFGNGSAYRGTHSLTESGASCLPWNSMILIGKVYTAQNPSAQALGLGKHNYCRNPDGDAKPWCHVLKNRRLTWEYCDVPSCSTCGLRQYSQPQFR
T6 sequence (P00742 235-488 limits assumed): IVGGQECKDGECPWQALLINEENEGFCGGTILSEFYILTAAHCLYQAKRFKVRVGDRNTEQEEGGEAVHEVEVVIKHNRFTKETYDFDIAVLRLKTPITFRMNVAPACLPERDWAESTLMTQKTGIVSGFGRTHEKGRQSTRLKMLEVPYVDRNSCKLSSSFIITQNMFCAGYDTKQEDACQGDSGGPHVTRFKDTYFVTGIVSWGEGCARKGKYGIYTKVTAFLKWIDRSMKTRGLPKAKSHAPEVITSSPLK
T6 sequence (P00742 41-179 partner limits assumed): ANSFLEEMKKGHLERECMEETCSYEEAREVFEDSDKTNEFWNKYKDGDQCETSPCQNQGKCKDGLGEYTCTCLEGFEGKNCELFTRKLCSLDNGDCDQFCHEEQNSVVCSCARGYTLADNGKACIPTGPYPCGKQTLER

`O=C(Nc1ccc(C(=O)Nc2ccc(Cl)cc2)c(O)c1)c1ccc(-c2nc3cc(Cl)c(Cl)cc3[nH]2)cc1` [Example 1, N-(4-Chlorophenyl)-4-(4-(5,6-dichloro-1H-benzo[d]imidazol-2-yl)benzamido)-2-hydroxybenzamide]: the melting point (commonly the temperature of the solid-liquid transition) is over 220 °C. Also, the IC50 (as a rule, the midpoint of a concentration-inhibition curve) at Thrombin is over 150 µM. The same compound returned an IC50 against Plasmin of over 150 µM. Also, the IC50 against Kallikrein is over 150 µM. Moreover, on tPA (2 chain), the IC50 is over 150 µM. On uPA, this compound registered an IC50 of over 150 µM. At Factor Xa, this compound had an IC50 of 84.8 ± 46.4 µM. In addition, the “Weight loss compared to the vehicle control” value in series [1] is recorded as “did not produce any increase in weight loss”. Moreover, in series [2], the “Average CAF levels” value was 66.6 % of vehicle.
